Reference: the NIST ThermoML archive (doi:10.1021/je030136n)

Experiment: xn = mol fraction of the nth substance listed
Details: Liquid, Pulse-echo method

CCCCCCC [heptane] + CCCO
Details | speed of sound [m/s]
308.07 K, 30400 kPa, x2 = 0 | 1290.3
308.07 K, 45590 kPa, x2 = 0 | 1368.7
308.08 K, 100 kPa, x2 = 0 | 1087.4
308.08 K, 15200 kPa, x2 = 0 | 1200.4
308.09 K, 121580 kPa, x2 = 0.7016 | 1655.6
308.09 K, 121580 kPa, x2 = 0.7986 | 1657.2
308.1 K, 121580 kPa, x2 = 0.3008 | 1657.5
308.1 K, 121580 kPa, x2 = 0.4992 | 1655.4
308.11 K, 30400 kPa, x2 = 0.6027 | 1293.7
308.11 K, 91190 kPa, x2 = 0 | 1562.4
308.11 K, 111450 kPa, x2 = 0.4992 | 1622.6
308.11 K, 111450 kPa, x2 = 0.7986 | 1625.7
308.12 K, 100 kPa, x2 = 0.3008 | 1086.3
308.12 K, 15200 kPa, x2 = 0.1008 | 1194.9
308.12 K, 60790 kPa, x2 = 0 | 1439
308.12 K, 75990 kPa, x2 = 0 | 1503.2
308.12 K, 91190 kPa, x2 = 0.7016 | 1555.2
308.13 K, 30400 kPa, x2 = 0.7986 | 1308.5
308.14 K, 45590 kPa, x2 = 0.6027 | 1368.1
308.14 K, 60790 kPa, x2 = 0.7986 | 1444.4
308.14 K, 91190 kPa, x2 = 0.3008 | 1552.6
308.14 K, 101320 kPa, x2 = 0.7986 | 1592.7
308.14 K, 111450 kPa, x2 = 0.3008 | 1624.1
308.15 K, 100 kPa, x2 = 0.7986 | 1128.4
308.15 K, 45590 kPa, x2 = 0.7986 | 1379.8
308.15 K, 60790 kPa, x2 = 0.3008 | 1431.2
308.15 K, 101320 kPa, x2 = 0.4992 | 1588.3
308.16 K, 45590 kPa, x2 = 0.3008 | 1362
308.16 K, 101320 kPa, x2 = 0.3008 | 1589.1
308.16 K, 101320 kPa, x2 = 0.7016 | 1590
308.16 K, 111450 kPa, x2 = 0.6027 | 1622.3
308.17 K, 75990 kPa, x2 = 0.3008 | 1494.3
308.17 K, 75990 kPa, x2 = 0.6027 | 1496.3
308.17 K, 111450 kPa, x2 = 0.7016 | 1623.4
308.17 K, 121580 kPa, x2 = 0 | 1668.6
308.18 K, 60790 kPa, x2 = 0.6027 | 1435
308.18 K, 75990 kPa, x2 = 0.4992 | 1495.2
308.18 K, 91190 kPa, x2 = 0.4992 | 1552.3
308.18 K, 91190 kPa, x2 = 0.6027 | 1552.8
308.18 K, 121580 kPa, x2 = 0.6027 | 1654.7
308.19 K, 30400 kPa, x2 = 0.3008 | 1284.8
308.19 K, 60790 kPa, x2 = 0.4992 | 1433
308.19 K, 75990 kPa, x2 = 0.7986 | 1503.4
308.2 K, 100 kPa, x2 = 0.4992 | 1095.2
308.2 K, 30400 kPa, x2 = 0.4992 | 1289.6
308.2 K, 45590 kPa, x2 = 0.4992 | 1365.2
308.2 K, 45590 kPa, x2 = 0.7016 | 1373.1
308.2 K, 75990 kPa, x2 = 0.1008 | 1497.7
308.2 K, 91190 kPa, x2 = 0.7986 | 1558.1
308.2 K, 101320 kPa, x2 = 0.1008 | 1593.7
308.21 K, 100 kPa, x2 = 0.6027 | 1103.5
308.21 K, 100 kPa, x2 = 0.7016 | 1114.7
308.21 K, 60790 kPa, x2 = 0.1008 | 1433.6
308.21 K, 60790 kPa, x2 = 0.7016 | 1438.8
308.21 K, 111450 kPa, x2 = 0 | 1634.6
308.22 K, 100 kPa, x2 = 0.1008 | 1082.2
308.22 K, 30400 kPa, x2 = 0.1008 | 1284.6
308.22 K, 30400 kPa, x2 = 0.7016 | 1300
308.22 K, 45590 kPa, x2 = 0.1008 | 1363.2
308.22 K, 91190 kPa, x2 = 0.1008 | 1556.7
308.22 K, 111450 kPa, x2 = 0.1008 | 1628.9
308.23 K, 75990 kPa, x2 = 0.7016 | 1499.1
308.23 K, 121580 kPa, x2 = 0.1008 | 1662.3
308.24 K, 101320 kPa, x2 = 0 | 1599.1
308.24 K, 101320 kPa, x2 = 0.6027 | 1588.1
313.08 K, 100 kPa, x2 = 0.7986 | 1109.7
313.08 K, 75990 kPa, x2 = 0.7986 | 1490.8
313.09 K, 30400 kPa, x2 = 0.4992 | 1273.3
313.09 K, 60790 kPa, x2 = 0.4992 | 1418.7
313.1 K, 100 kPa, x2 = 0 | 1066.1
313.1 K, 100 kPa, x2 = 0.6027 | 1083.9
313.1 K, 15200 kPa, x2 = 0 | 1182
313.1 K, 60790 kPa, x2 = 0.7986 | 1431
313.1 K, 75990 kPa, x2 = 0 | 1489.2
313.1 K, 121580 kPa, x2 = 0.7986 | 1645.9
313.11 K, 45590 kPa, x2 = 0.7986 | 1365.7
313.11 K, 91190 kPa, x2 = 0.7016 | 1542.7
313.11 K, 91190 kPa, x2 = 0.7986 | 1546.1
313.11 K, 101320 kPa, x2 = 0.7986 | 1580.9
313.12 K, 30400 kPa, x2 = 0 | 1273.3
313.12 K, 30400 kPa, x2 = 0.6027 | 1277.6
313.12 K, 45590 kPa, x2 = 0 | 1353
313.12 K, 45590 kPa, x2 = 0.3008 | 1346.5
313.12 K, 60790 kPa, x2 = 0 | 1424.3
313.12 K, 60790 kPa, x2 = 0.1008 | 1419
313.12 K, 75990 kPa, x2 = 0.6027 | 1482.9
313.12 K, 91190 kPa, x2 = 0.6027 | 1540
313.12 K, 101320 kPa, x2 = 0.6027 | 1575.9
313.12 K, 111450 kPa, x2 = 0.7986 | 1614.1
313.13 K, 45590 kPa, x2 = 0.1008 | 1347.6
313.13 K, 45590 kPa, x2 = 0.6027 | 1353
313.13 K, 91190 kPa, x2 = 0 | 1549
313.13 K, 101320 kPa, x2 = 0.7016 | 1578
313.13 K, 121580 kPa, x2 = 0 | 1656.4
313.14 K, 15200 kPa, x2 = 0.1008 | 1176.1
313.14 K, 60790 kPa, x2 = 0.6027 | 1420.9
313.14 K, 75990 kPa, x2 = 0.1008 | 1483.7
